These are literature values, as cited in patent EP0699249B1, “METHODS FOR TREATING NON-COTTON-CONTAINING FABRICS WITH CELLULASE” (GENENCOR INTERNATIONAL, INC., priority 1994, dated 1995).

The data set concerns the target CBH I and CBH II from Trichoderma longibrachiatum. The note with it: competitive inhibition of CBH components.

The structures appear in SMILES notation.

In general, Ki refers to the dissociation constant of the complex between target and ligand, obtained from inhibition or displacement. `O=C[C@H](O)[C@@H](O)[C@H](O[C@@H]1O[C@H](CO)[C@@H](O)[C@H](O)[C@H]1O)[C@H](O)CO` [cellobiose]: the Ki was approximately 1000 µM.
